These compounds were tested against T1, AMPK complex 1 (containing alpha1beta1gamma1) (Homo sapiens, UniProt Q13131+Q9Y478) (assay: In vitro AMPK activation assay (ADP-Glo Kinase Assay)). Details: 30 μM ATP, 1 μM peptide, 60 min, room temperature.
T1 construct: GST (Glutathion S transferase) (N); made in house; host or cells: baculovirus; virus made in Sf9, expression in High Five cells
Type: biochemical
Excerpt: Activated AMPK complex 1 (containing alpha1beta1gamma1) was obtained from baculovirus expression system. The gene encoding AMPK alpha1 was cloned into the pACG2T vector (BD Biosciences) to obtain a N-terminal Glutathion S transferase (GST)-fusion protein. The genes encoding AMPK beta 1 and gamma1 were cloned into the p2Bac dual multiple cloning site vector (Invitrogen) with beta1 under the control of the p10 promoter and gamma1 under the control of the PH promoter. The transfer vectors containing AMPK were co-transfected individually with AcPNV BacMagic-3 DNA (EMD Millipore) in Sf9 cells and the recombinant baculoviruses were harvested after 5 days, followed by 3 rounds of amplification of the virus stock in Sf9 cells. AMPK (alpha1beta1gamma1) was expressed in High Five 5 cells by co-infection of recombinant alpha1 virus and recombinant beta1/gamma1 virus for 72 h at 27° C. Cells were harvested by centrifugation and lysed by 3 freeze/thaw cycles in PBS with 10% glycerol and protease inhibitor cocktail (Roche). After centrifugation AMPK a1b1g1 in the supernatant was captured by immobilized glutathione (GE Healthcare), impurities were washed away with PBS and AMPK alpha1beta1gamma1 was eluted with PBS containing 20 mM reduced gluthathione. The protein buffer was then exchanged to PBS with 10% glycerol and protein concentration was determined by UV absorbance.
The white 384-well Optiplates (cat.no. 6007299) were purchased from PerkinElmer. The V9101 ADP-Glo Kinase Assay and ultra pure ATP (V915A) was purchased from Promega. The substrate for AMPK (NH2-HMRSAMSGLHLVKRR_CONH2) was purchased from Upstate (12-355).
Compounds were tested in either serial dilutions or single dose concentrations. The serial compound dilutions were prepared in 100% DMSO automatically. The final DMSO concentration in the assay was 0.1%.
The Compound Stock Solutions were 10 mM in 100% DMSO. The compounds were solubilised at room temperature.
In the 384-well plates 1.25 ul of test compound in assay buffer was mixed with 1.25 ul of AMPK and 1.25 μl of the peptide (final concentration of 1 μM) and 1.25 μl of ATP (final concentration of 30 μM), both dissolved in assay buffer. This step was followed by an incubation time of 60 min. Then 5 μl of ADP Glo Reagent was added. This was followed by 40 min of incubation. Then 10 μl of Kinase Detection Reagent was admixed. The plates were sealed and after an incubation period of 30 min, the luminescence signal was measured in an Envision reader. All incubation steps were accomplished at room temperature.
Each assay microtiter plate contained wells with vehicle controls instead of compound (0.1% DMSO in water) as reference for the low signal (100% CTL, low signal), and wells with serial dilutions of AMP (final 30 μM) as reference for high signals.
The luminescence signal generated was proportional to the ADP concentration produced and was correlated with AMPK activity. The analysis of the data was performed by the calculation of the percentage of ATP consumption of AMPK in the presence of the test compound compared to the consumption of ATP in the presence of AMPK without compound. (RLU(sample)/RLU(low control))*100[RLU=relative luminescence units]
An activator of the AMPK enzyme gave values above 100% CTL.
EC50 values based on dose response curves are calculated with the XIFIT software using the 4 Parameter Logistic Model or Sigmoidal Dose-Response Model.

T1 sequence (Q13131 whole entry): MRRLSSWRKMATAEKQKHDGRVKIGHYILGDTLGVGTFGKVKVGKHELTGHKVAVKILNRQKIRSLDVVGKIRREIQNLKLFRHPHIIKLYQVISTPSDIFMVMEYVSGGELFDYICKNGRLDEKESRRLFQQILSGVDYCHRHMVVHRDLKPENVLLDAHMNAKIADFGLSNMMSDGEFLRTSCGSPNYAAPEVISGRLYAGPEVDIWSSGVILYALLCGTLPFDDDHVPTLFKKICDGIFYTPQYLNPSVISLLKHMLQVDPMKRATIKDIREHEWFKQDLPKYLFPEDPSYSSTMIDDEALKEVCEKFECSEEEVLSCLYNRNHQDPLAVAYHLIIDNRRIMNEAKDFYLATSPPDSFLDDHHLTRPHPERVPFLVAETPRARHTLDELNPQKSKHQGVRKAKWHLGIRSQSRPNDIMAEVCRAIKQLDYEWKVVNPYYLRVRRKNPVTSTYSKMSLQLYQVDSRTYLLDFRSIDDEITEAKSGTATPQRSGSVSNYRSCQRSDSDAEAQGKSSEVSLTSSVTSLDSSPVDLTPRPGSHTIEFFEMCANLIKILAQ
T1 sequence (Q9Y478 whole entry): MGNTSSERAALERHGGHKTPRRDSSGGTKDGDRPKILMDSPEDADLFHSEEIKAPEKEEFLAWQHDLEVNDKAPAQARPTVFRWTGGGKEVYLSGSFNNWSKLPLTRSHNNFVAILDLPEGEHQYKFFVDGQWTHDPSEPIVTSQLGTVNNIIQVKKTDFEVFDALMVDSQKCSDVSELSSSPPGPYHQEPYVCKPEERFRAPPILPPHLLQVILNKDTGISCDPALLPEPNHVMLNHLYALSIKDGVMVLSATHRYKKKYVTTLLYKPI
T1 sequence (P54619 whole entry partner): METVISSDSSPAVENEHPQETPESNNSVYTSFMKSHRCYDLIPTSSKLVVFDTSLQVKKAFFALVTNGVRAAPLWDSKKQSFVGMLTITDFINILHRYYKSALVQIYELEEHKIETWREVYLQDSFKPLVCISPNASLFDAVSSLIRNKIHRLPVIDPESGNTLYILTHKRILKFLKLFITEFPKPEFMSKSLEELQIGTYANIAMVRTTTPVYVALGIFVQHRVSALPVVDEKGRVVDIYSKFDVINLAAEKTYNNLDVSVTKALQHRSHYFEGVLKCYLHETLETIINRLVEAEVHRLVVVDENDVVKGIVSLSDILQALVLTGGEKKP

Row | Structure (SMILES) | EC50 [nM]
1 | CC(C)S(C)(=O)=Nc1ccc(-c2ccc(-c3nc4[nH]c(O[C@@H]5CO[C@H]6[C@@H]5OC[C@H]6O)nc4cc3Cl)cc2)cc1 (stereo partly drawn) [Example 18, N-(4′-(6-Chloro-2-((3R,3aR,6R,6aR)-6-hydroxyhexahydrofuro[3,2-b]furan-3-yloxy)-3H-imidazo[4,5-b]pyridin-5-yl)biphenyl-4-yl)-S-isopropyl-S-methylsulfoximide] | 34
2 | N=S1(=O)CCN(c2ccc(-c3nc4[nH]c(O[C@@H]5CO[C@H]6[C@@H]5OC[C@H]6O)nc4cc3Cl)cc2)CC1 [Example 4] | 22
3 | CS(C)(=O)=NCc1cccc(-c2ccc(-c3nc4[nH]c(O[C@@H]5CO[C@H]6[C@@H]5OC[C@H]6O)nc4cc3Cl)cc2)c1 [Example 38, N-(4′-(6-Chloro-2-((3R,3aR,6R,6aR)-6-hydroxyhexahydrofuro[3,2-b]furan-3-yloxy)-3H-imidazo[4,5-b]pyridin-5-yl)biphenyl-3-ylmethyl)-S,S-dimethylsulfoximide] | 704
4 | CS(C)(=O)=Nc1ccc(-c2ncc(-c3nc4[nH]c(O[C@@H]5CO[C@H]6[C@@H]5OC[C@H]6O)nc4cc3Cl)cn2)cc1 [Example 42, N-(4-{5-[6-Chloro-2-((3R,3aR,6R,6aR)-6-hydroxyhexahydrofuro[3,2-b]furan-3-yloxy)-3H-imidazo[4,5-b]pyridin-5-yl]-pyrimidin-2-yl}-phenyl)-S,S-dimethylsulfoximide] | 410
5 | CS(=O)(=Nc1ccc(-c2ccc(-c3nc4[nH]c(O[C@@H]5CO[C@H]6[C@@H]5OC[C@H]6O)nc4cc3Cl)cc2)cc1)C1CC1 (stereo partly drawn) [Example 15, N-(4′-(6-Chloro-2-((3R,3aR,6R,6aR)-6-hydroxyhexahydrofuro[3,2-b]furan-3-yloxy)-3H-imidazo[4,5-b]pyridin-5-yl)biphenyl-4-yl)-S-cyclopropyl-S-methylsulfoximide] | 41
6 | CS(C)(=O)=Nc1ccc(-c2ccc(-c3nc4[nH]c(O[C@@H]5CO[C@H]6[C@@H]5OC[C@H]6O)nc4cc3Cl)cn2)cc1 [Example 32, N-(4-{5-[6-Chloro-2-((3R,3aR,6R,6aR)-6-hydroxyhexahydrofuro[3,2-b]furan-3-yloxy)-3H-imidazo[4,5-b]pyridin-5-yl]-pyridin-2-yl}-phenyl)-S,S-dimethylsulfoximide] | 13
7 | CS(=O)(=Nc1ccc(-c2nc3[nH]c(O[C@@H]4CO[C@H]5[C@@H]4OC[C@H]5O)nc3cc2Cl)cc1)c1ccncc1 (stereo partly drawn) [Example 26, N-(4-(6-Chloro-2-((3R,3aR,6R,6aR)-6-hydroxyhexahydrofuro[3,2-b]furan-3-yloxy)-3H-imidazo[4,5-b]pyridin-5-yl)phenyl)-S-methyl-S-(pyridin-4-yl)-sulfoximide] | 145
8 | CS(C)(=O)=NCc1ccnc(-c2ccc(-c3nc4[nH]c(O[C@@H]5CO[C@H]6[C@@H]5OC[C@H]6O)nc4cc3Cl)cc2)c1 [Example 46, N-(2-(4-(6-Chloro-2-((3R,3aR,6R,6aR)-6-hydroxyhexahydrofuro[3,2-b]furan-3-yloxy)-3H-imidazo[4,5-b]pyridin-5-yl)phenyl)pyridin-4-ylmethyl)-S,S-dimethylsulfoximide] | 37
9 | N=S1(=O)CC=C(c2ccc(-c3nc4[nH]c(O[C@@H]5CO[C@H]6[C@@H]5OC[C@H]6O)nc4cc3Cl)cc2)CC1 (some centres unmarked) [Example 40] | 50
10 | N=S1(=O)CCC(c2ccc(-c3nc4[nH]c(O[C@@H]5CO[C@H]6[C@@H]5OC[C@H]6O)nc4cc3Cl)cc2)CC1 (single isomer, unassigned) [Example 55] | 26
11 | CS(C)(=O)=NC(=O)c1ccc(-c2nc3[nH]c(O[C@@H]4CO[C@H]5[C@@H]4OC[C@H]5O)nc3cc2Cl)cc1 [Example 3] | 402
12 | CS(C)(=N)=Nc1ccc(-c2ccc(-c3nc4[nH]c(O[C@@H]5CO[C@H]6[C@@H]5OC[C@H]6O)nc4cc3Cl)cc2)cc1 [Example 17, N-(4′-(6-Chloro-2-((3R,3aR,6R,6aR)-6-hydroxyhexahydrofuro[3,2-b]furan-3-yloxy)-3H-imidazo[4,5-b]pyridin-5-yl)biphenyl-4-yl)-S,S-dimethyl-sulfondiimine] | 1
13 | C[S@@](=O)(=Nc1ccc(-c2nc3[nH]c(O[C@@H]4CO[C@H]5[C@@H]4OC[C@H]5O)nc3cc2Cl)cc1)c1ccccc1 [Example 9, (S)-N-(4-(6-Chloro-2-((3R,3aR,6R,6aR)-6-hydroxyhexahydrofuro[3,2-b]furan-3-yloxy)-3H-imidazo[4,5-b]pyridin-5-yl)phenyl)-S-methyl-S-phenylsulfoximide] | 14
14 | CS(C)(=O)=Nc1cccc(-c2ccc(-c3nc4[nH]c(O[C@@H]5CO[C@H]6[C@@H]5OC[C@H]6O)nc4cc3Cl)cc2)n1 [Example 47, N-(6-{4-[6-Chloro-2-((3R,3aR,6R,6aR)-6-hydroxyhexahydrofuro[3,2-b]furan-3-yloxy)-3H-imidazo[4,5-b]pyridin-5-yl]-phenyl}-pyridin-2-yl)-S,S-dimethylsulfoximide] | 67
15 | CCS(C)(=O)=Nc1ccc(-c2ccc(-c3nc4[nH]c(O[C@@H]5CO[C@H]6[C@@H]5OC[C@H]6O)nc4cc3Cl)cc2)cc1 (stereo partly drawn) [Example 13, N-(4′-(6-Chloro-2-((3R,3aR,6R,6aR)-6-hydroxyhexahydrofuro[3,2-b]furan-3-yloxy)-3H-imidazo[4,5-b]pyridin-5-yl)biphenyl-4-yl)-S-ethyl-S-methylsulfoximide] | 4
16 | CS(C)(=O)=Nc1ccc(-c2ccc(-c3nc4[nH]c(O[C@@H]5CO[C@H]6[C@@H]5OC[C@H]6O)nc4cc3Cl)cc2)nc1 [Example 30, N-(2-(4-(6-Chloro-2-((3R,3aR,6R,6aR)-6-hydroxyhexahydrofuro[3,2-b]furan-3-yloxy)-3H-imidazo[4,5-b]pyridin-5-yl)phenyl)pyridin-5-yl)-S,S-dimethylsulfoximide] | 2
17 | C[S@](=O)(=NC(=O)c1ccc(-c2nc3[nH]c(O[C@@H]4CO[C@H]5[C@@H]4OC[C@H]5O)nc3cc2Cl)cc1)c1ccccc1 [Example 25, (R)-N-4-(6-Chloro-2-((3R,3aR,6R,6aR)-6-hydroxyhexahydrofuro[3,2-b]furan-3-yloxy)-3H-imidazo[4,5-b]pyridin-5-yl)-benzoyl-S-methyl-5-phenylsulfoximine] | 1200
18 | O=S1(=Nc2ccc(-c3ccc(-c4nc5[nH]c(O[C@@H]6CO[C@H]7[C@@H]6OC[C@H]7O)nc5cc4Cl)cc3)cc2)CCCC1 [Example 8, (3R,3aR,6R,6aR)-6-{6-Chloro-5-[4′-(1-oxo-tetrahydro-1λ4-thiophen-1-ylideneamino)-biphenyl-4-yl]-3H-imidazo[4,5-b]pyridin-2-yloxy}-hexahydro-furo[3,2-b]furan-3-ol] | 4
19 | CS(=N)(=O)[C@H]1CC[C@@H](c2ccc(-c3nc4[nH]c(O[C@@H]5CO[C@H]6[C@@H]5OC[C@H]6O)nc4cc3Cl)cc2)CC1 (stereo partly drawn) [Example 33, cis-(3R,3aR,6R,6aR)-6-(6-Chloro-5-[4-{4-(S-methylsulfonimidoyl)-cyclohexyl}-phenyl]-3H-imidazo[4,5-b]pyridin-2-yloxy)-hexahydro-furo[3,2-b]furan-3-ol] | 265
20 | CS(C)(=O)=Nc1ccc2c(n1)CN(c1ccc(-c3nc4[nH]c(O[C@@H]5CO[C@H]6[C@@H]5OC[C@H]6O)nc4cc3Cl)cc1)C2 [Example 44, N-(6-{4-[6-Chloro-2-((3R,3aR,6R,6aR)-6-hydroxyhexahydrofuro[3,2-b]furan-3-yloxy)-3H-imidazo[4,5-b]pyridin-5-yl]-phenyl}-6,7-dihydro-5H-pyrrolo[3,4-b]pyridin-2-yl)-S,S-dimethylsulfoximide] | 66

From patent US9492436B2, “Azabenzimidazole derivatives” (Boehringer Ingelheim International GmbH, priority 2013, dated 2016)
